# Measurements reported in ChEMBL document CHEMBL6121069, “A Medicinal Chemistry Perspective on Protein Tyrosine Phosphatase Nonreceptor Type 2 in Tumor Immunology” (J Med Chem, 2025).
# pIC50, pKi: −log10 of the molar value.
# Target: T1, Tyrosine-protein phosphatase non-receptor type 2 (Homo sapiens, UniProt P17706)
# T1 sequence (P17706 whole entry): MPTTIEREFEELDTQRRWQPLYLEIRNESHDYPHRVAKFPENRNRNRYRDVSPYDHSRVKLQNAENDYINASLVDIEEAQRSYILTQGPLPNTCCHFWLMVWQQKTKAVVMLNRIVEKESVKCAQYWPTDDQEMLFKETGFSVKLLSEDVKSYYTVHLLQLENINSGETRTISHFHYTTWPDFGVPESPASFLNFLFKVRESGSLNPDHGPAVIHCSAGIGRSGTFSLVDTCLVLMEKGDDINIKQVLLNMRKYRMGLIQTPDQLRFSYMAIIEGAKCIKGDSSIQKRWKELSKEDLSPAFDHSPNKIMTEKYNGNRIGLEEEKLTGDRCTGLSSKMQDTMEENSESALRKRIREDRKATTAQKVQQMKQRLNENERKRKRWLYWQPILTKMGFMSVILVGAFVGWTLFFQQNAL
# Test: not given
# Settings: not given
row,SMILES,pKi
1,Cc1ccnc(Nc2cc(O)c(N3CC(=O)NS3(=O)=O)c(F)c2)n1,≤ 7.00
2,CC(C)Cc1cnc(Nc2cc(O)c(N3CC(=O)NS3(=O)=O)c(F)c2)nc1O,> 9.00
3,CC1CCN=C(Nc2cc(O)c(N3CC(=O)NS3(=O)=O)c(F)c2)N1 (stereo not given),8.30
4,Cc1cnc(Nc2cc(O)c(N3CC(=O)NS3(=O)=O)c(F)c2)nc1O,> 9.00
5,O=C1CN(c2c(O)cc(NC3=NCCCN3)cc2F)S(=O)(=O)N1,8.30
6,Cc1cc(O)nc(Nc2cc(O)c(N3CC(=O)NS3(=O)=O)c(F)c2)n1,9.00

# Target: T2, Tyrosine-protein phosphatase non-receptor type 1 (Homo sapiens, UniProt P18031)
# T2 sequence (P18031 whole entry): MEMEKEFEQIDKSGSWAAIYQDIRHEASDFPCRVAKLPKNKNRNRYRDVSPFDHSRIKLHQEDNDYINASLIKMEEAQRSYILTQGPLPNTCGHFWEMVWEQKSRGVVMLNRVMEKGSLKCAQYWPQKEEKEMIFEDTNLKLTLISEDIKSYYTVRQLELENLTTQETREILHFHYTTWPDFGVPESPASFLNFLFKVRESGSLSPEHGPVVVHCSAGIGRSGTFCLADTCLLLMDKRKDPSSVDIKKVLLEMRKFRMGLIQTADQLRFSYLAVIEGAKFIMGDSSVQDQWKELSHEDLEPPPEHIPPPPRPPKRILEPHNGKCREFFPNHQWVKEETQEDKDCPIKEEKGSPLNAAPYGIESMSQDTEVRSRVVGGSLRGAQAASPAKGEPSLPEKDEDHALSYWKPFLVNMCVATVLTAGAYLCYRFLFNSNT
# Test: not given
# Settings: not given
row,pIC50,SMILES
1,7.40,O=P(O)(O)C(F)(F)c1ccc(CC(Cc2ccc(-c3ccccc3)cc2)(c2ccccc2)n2nnc3ccccc32)cc1 (stereo not given)
2,8.08,O=C1CN(c2c(O)cc3ccccc3c2F)S(=O)(=O)N1
3,4.11,Cc1c(O[C@@H]2O[C@H](CO[C@@H]3OC[C@@H](O)[C@H](O)[C@H]3O)[C@@H](O)[C@H](O)[C@H]2O)cc2c(c1O)C(=O)c1ccc(O)c(O)c1C2=O
4,7.10,COc1ccc(-c2ccc[nH]2)cc1N1CC(=O)NS1(=O)=O

# Target: T1, Tyrosine-protein phosphatase non-receptor type 2
# Test: not given
# Settings: not given
# Remark: another data set of the same source
row,pIC50,SMILES
1,> 6.00,CC(C)CCc1ccc2cc(O)c(N3CC(=O)NS3(=O)=O)c(F)c2n1
2,> 6.00,CC(C)CCCc1cc2c(F)c(N3CC(=O)NS3(=O)=O)c(O)cc2n(C)c1=O
3,7.94,O=C1CN(c2c(O)cc3ccccc3c2F)S(=O)(=O)N1
4,> 6.00,COc1ccc2cc(O)c(N3CC(=O)NS3(=O)=O)c(F)c2n1
5,< 5.00,CC(C)CCc1ccc2ccc(N3CC(=O)NS3(=O)=O)cc2n1
6,> 6.00,CC(C)CCn1ccc(-c2ccc(O)c(N3CC(=O)NS3(=O)=O)c2F)c1
7,< 5.00,CC(C)CCn1cnc2cc(O)c(N3CC(=O)NS3(=O)=O)c(F)c2c1=O
8,> 6.00,CC(C)CCn1cc(-c2ccc(O)c(N3CC(=O)NS3(=O)=O)c2F)nn1
9,< 6.00,CC(C)CCn1ccc2cc(O)c(N3CC(=O)NS3(=O)=O)c(F)c2c1=O
10,> 6.00,CC(C)CCOc1ccc2cc(O)c(N3CC(=O)NS3(=O)=O)c(F)c2n1
11,> 6.00,CC(C)CCn1cc(-c2ccc(O)c(N3CC(=O)NS3(=O)=O)c2F)cn1
12,> 6.00,CC(C)CCc1ccc2cc(O)c(N3CC(=O)NS3(=O)=O)cc2n1
13,> 6.00,CC(C)CCn1cnc(-c2ccc(O)c(N3CC(=O)NS3(=O)=O)c2F)c1

# The remaining lines, values behind:
row,SMILES,pIC50
1,CCN1CN(Cc2ccc(I)cc2)C(=O)S1,6.43
2,CC(C)CCNC(=O)Nc1cc(O)c(N2CC(=O)NS2(=O)=O)c(F)c1,8.30
3,O=C1CN(c2c(O)cc3c(c2F)C[C@H](NCCCC(F)F)CC3)S(=O)(=O)N1,> 9.00
4,O=C1CN(c2c(O)cc3c(c2F)C[C@H](NCCC(F)F)CC3)S(=O)(=O)N1,9.00
5,N[C@@H]1CCc2cc(O)c(N3CC(=O)NS3(=O)=O)c(F)c2CC1,8.25
6,O=C1CN(c2c(O)cc3c(c2F)CNCCC3)S(=O)(=O)N1,5.72
7,O=C(O)CN1CCN(CCN2CN(Cc3ccccc3)C(=O)S2)CC1,5.06
8,CCN1CN(Cc2ccc(Br)cc2)C(=O)S1,6.28
9,CCN1CCc2cc(O)c(N3CC(=O)NS3(=O)=O)c(F)c2CC1C (stereo not given),6.67
10,CCN1CN(Cc2ccc(Cl)cc2)C(=O)S1,6.48
11,CCN1CN(Cc2ccc(F)cc2)C(=O)S1,6.55
12,O=C1CN(c2c(O)cc3c(c2F)C[C@H](NCCCC(F)(F)F)CC3)S(=O)(=O)N1,9.00
13,CC(C)N1CCN(CCN2CN(Cc3ccccc3)C(=O)S2)CC1,5.15
14,O=C1SN(CCN2CCN(Cc3ccc4c(c3)OCO4)CC2)CN1Cc1ccccc1,5.28
15,CC1(C)CCC(NCc2ccc(O)c(N3CC(=O)NS3(=O)=O)c2F)CC1,5.00

# Target: T1, Tyrosine-protein phosphatase non-receptor type 2
# Test: not given
# Settings: not given
# Remark: another data set of the same source
row,SMILES,pIC50
1,O=C1CN(c2c(O)cc3c(c2F)C[C@H](NCCCC(F)F)CC3)S(=O)(=O)N1,> 10.00

# Tested on: B16-F10
# Test: cells
# Settings: Mus musculus
# Description: Antiproliferative activity against mouse B16-F10 cells
row,SMILES,pIC50
1,CC(C)CCNC(=O)Nc1cc(O)c(N2CC(=O)NS2(=O)=O)c(F)c1,> 5.30
2,O=C1CN(c2c(O)cc3c(c2F)C[C@H](NCCCC(F)F)CC3)S(=O)(=O)N1,> 7.30
3,O=C1CN(c2c(O)cc3c(c2F)C[C@H](NCCC(F)F)CC3)S(=O)(=O)N1,5.82
4,N[C@@H]1CCc2cc(O)c(N3CC(=O)NS3(=O)=O)c(F)c2CC1,5.79
5,Cc1ccnc(Nc2cc(O)c(N3CC(=O)NS3(=O)=O)c(F)c2)n1,≤ 4.00
6,CC(C)Cc1cnc(Nc2cc(O)c(N3CC(=O)NS3(=O)=O)c(F)c2)nc1O,5.30
7,O=C1CN(c2c(O)cc3c(c2F)C[C@H](NCCCC(F)(F)F)CC3)S(=O)(=O)N1,> 7.30
8,CC1CCN=C(Nc2cc(O)c(N3CC(=O)NS3(=O)=O)c(F)c2)N1 (stereo not given),5.30
9,Cc1cnc(Nc2cc(O)c(N3CC(=O)NS3(=O)=O)c(F)c2)nc1O,4.30
10,O=C1CN(c2c(O)cc(NC3=NCCCN3)cc2F)S(=O)(=O)N1,> 5.30
11,Cc1cc(O)nc(Nc2cc(O)c(N3CC(=O)NS3(=O)=O)c(F)c2)n1,> 5.30
